Measured values: ChEMBL document CHEMBL1153545 (Antimicrob Agents Chemother, 2007)
In brackets after ≈: the same amount, converted by molar mass. Activity calls are given as the source filed them. No cut-off for these calls is given here.

Tests used:
Streptococcus pneumoniae [1] = assay: Antimicrobial activity against Streptococcus pneumoniae Spn-RC2 infected in one-compartment pharmacodynamic system assessed as decrease in bacterial density administered at simulated at 500 mg QD dosage regimen for 10 days measured after 24 hrs by quantitative culture assay; type: functional, organism-based
Streptococcus pneumoniae [2] = assay: Antimicrobial activity against Streptococcus pneumoniae Spn-058 infected in one-compartment pharmacodynamic system assessed as prevention of regrowth administered ciprofloxacin at simulated oral dose regimen of 750 mg in human every 12 hrs measured on day 10; type: functional, organism-based
Streptococcus pneumoniae [3] = assay: Inhibition of efflux pump in Streptococcus pneumoniae Spn-RC2 assessed as reduction in ciprofloxacin MIC at 20 ug/ml by broth microdilution method
Streptococcus pneumoniae [4] = assay: Inhibition of efflux pump in Streptococcus pneumoniae Spn-058 assessed as change in ciprofloxacin MIC at 20 ug/ml by broth macrodilution method
Streptococcus pneumoniae [5] = assay: Inhibition of efflux pump in Streptococcus pneumoniae Spn-RC2 assessed as reduction in levofloxacin at 20 ug/ml MIC by broth microdilution method
Streptococcus pneumoniae [6] = assay: Induction of efflux pump expression in Streptococcus pneumoniae Spn-058 harboring mutation in gyrA gene at 20 ug/ml
Streptococcus pneumoniae [7] = assay: Inhibition of efflux pump in Streptococcus pneumoniae Spn-RC2 assessed as ethidium bromide uptake at 20 ug/ml
Streptococcus pneumoniae [8] = assay: Inhibition of efflux pump in Streptococcus pneumoniae Spn-058 assessed as ethidium bromide uptake at 20 ug/ml
Streptococcus pneumoniae [9] = assay: Inhibition of efflux pump in Streptococcus pneumoniae Spn-RC2 assessed as change in levofloxacin MIC by agar dilution method
Streptococcus pneumoniae [10] = assay: Induction of efflux pump expression in Streptococcus pneumoniae Spn-058 after 5 hrs by ethidium bromide uptake assay
Streptococcus pneumoniae [11] = assay: Inhibition of efflux pump in Streptococcus pneumoniae Spn-058 with harboring mutation in parC gene assessed as decrease in levofloxacin MIC
Streptococcus pneumoniae [12] = assay: Inhibition of efflux pump in Streptococcus pneumoniae Spn-058 assessed as reduction in levofloxacin MIC by agar dilution method
Streptococcus pneumoniae [13] = assay: Inhibition of ciprofloxacin-induced efflux pump expression in Streptococcus pneumoniae Spn-058 after 5 hrs by ethidium bromide uptake assay
Streptococcus pneumoniae [14] = assay: Induction of efflux pump expression in Streptococcus pneumoniae Spn-RC2 after 5 hrs by ethidium bromide uptake assay
Streptococcus pneumoniae [15] = assay: Antimicrobial activity against Streptococcus pneumoniae Spn-RC2 infected in one-compartment pharmacodynamic system assessed as regrowth of bacteria administered at simulated at 750 mg dosage regimen every 12 hrs measured on day 8; type: functional, organism-based
Streptococcus pneumoniae [16] = assay: Inhibition of efflux pump in Streptococcus pneumoniae Spn-058 assessed as change in levofloxacin MIC at 20 ug/ml by broth macrodilution method
Streptococcus pneumoniae [17] = assay: Inhibition of efflux pump in Streptococcus pneumoniae Spn-058 assessed as change in ciprofloxacin MIC by agar dilution method
Streptococcus pneumoniae [18] = assay: Antimicrobial activity against Streptococcus pneumoniae Spn-058 at 5.5 to 8 log10 CFU/ml bacterial density measured within 24 hrs; type: functional, organism-based
Streptococcus pneumoniae [19] = assay: Inhibition of efflux pump in Streptococcus pneumoniae Spn-RC2 assessed as reduction in levofloxacin MIC by agar microdilution method
Streptococcus pneumoniae [20] = assay: Inhibition of efflux pump in Streptococcus pneumoniae Spn-RC2 assessed as change in ciprofloxacin MIC by agar dilution method
Streptococcus pneumoniae [21] = assay: Inhibition of efflux pump in Streptococcus pneumoniae Spn-RC2 assessed as reduction in ciprofloxacin MIC by agar microdilution method
Streptococcus pneumoniae [22] = assay: Antimicrobial activity against Streptococcus pneumoniae Spn-058 assessed as bacterial load; type: functional, organism-based
Streptococcus pneumoniae [23] = assay: Inhibition of efflux pump in Streptococcus pneumoniae Spn-058 assessed as reduction in ciprofloxacin MIC by agar dilution method
Streptococcus pneumoniae [24] = assay: Inhibition of efflux pump in Streptococcus pneumoniae Spn-058 assessed as reduction in ciprofloxacin MIC by broth microdilution method
Streptococcus pneumoniae [25] = assay: Inhibition of efflux pump in Streptococcus pneumoniae Spn-058 infected in one-compartment pharmacodynamic system assessed as repid killing administered levofloxacin at simulated oral dose regimen of 750 mg in human every 12 hrs measured on day 6
Streptococcus pneumoniae [26] = assay: Inhibition of efflux pump in Streptococcus pneumoniae Spn-058 harboring mutation in parC and […] gene assessed as decrease in ciprofloxacin MIC
Streptococcus pneumoniae [27] = assay: Inhibition of efflux pump in Streptococcus pneumoniae Spn-058 assessed as reduction in levofloxacin MIC by broth microdilution method
Streptococcus pneumoniae [28] = assay: Inhibition of efflux pump in Streptococcus pneumoniae Spn-058 infected in one-compartment pharmacodynamic system assessed as repid killing administered levofloxacin at simulated oral dose regimen of 500 mg in human measured on day 6
Streptococcus pneumoniae [29] = assay: Inhibition of efflux pump in Streptococcus pneumoniae Spn-058 infected in one-compartment pharmacodynamic system assessed as repid killing administered levofloxacin at simulated oral dose regimen of 750 mg in human every 24 hrs measured on day 10
Streptococcus pneumoniae [30] = assay: Inhibition of efflux pump in Streptococcus pneumoniae Spn-058 with harboring Ser79Tyr mutation in parC gene assessed as decrease in ciprofloxacin MIC
Streptococcus pneumoniae [31] = assay: Inhibition of efflux pump in Streptococcus pneumoniae Spn-058 assessed as change in levofloxacin MIC by agar dilution method
Streptococcus pneumoniae [32] = assay: Inhibition of efflux pump in ciprofloxacin pretreated Streptococcus pneumoniae Spn-RC2 at 20 ug/ml by ethidium bromide uptake assay
Streptococcus pneumoniae [33] = assay: Antimicrobial activity against Streptococcus pneumoniae Spn-RC2 infected in one-compartment pharmacodynamic system assessed as regrowth of bacteria administered at simulated at 750 mg dosage regimen every 12 hrs measured on day 3; type: functional, organism-based
Streptococcus pneumoniae [34] = assay: Antimicrobial activity against Streptococcus pneumoniae Spn-058 by broth macrodilution technique in presence of 5% lysed horse blood; type: functional
Streptococcus pneumoniae [35] = assay: Antimicrobial activity against Streptococcus pneumoniae Spn-RC2 by broth macrodilution technique
Streptococcus pneumoniae [36] = assay: Antimicrobial activity against Streptococcus pneumoniae Spn-058 infected in one-compartment pharmacodynamic system assessed as regrowth of bacteria administered at simulated oral dose regimen of 750 mg in human every 12 hrs measured on day 2; type: functional, organism-based
Streptococcus pneumoniae [37] = assay: Antimicrobial activity against Streptococcus pneumoniae Spn-058 infected in one-compartment pharmacodynamic system assessed as reduction in bacterial density administered at simulated oral dose regimen of 750 mg in human every 12 hrs measured on day 1; type: functional, organism-based
Streptococcus pneumoniae [38] = assay: Antimicrobial activity against Streptococcus pneumoniae Spn-058 infected in one-compartment pharmacodynamic system assessed as regrowth of bacteria administered at simulated at 500 mg QD dosage regimen measured on day 6; type: functional, organism-based
[39] = Free AUC (0 to 24 hrs) in one-compartment pharmacodynamic system administered at simulated oral dose regimen of 500 mg in human for 10 days; type: ADME
Streptococcus pneumoniae [40] = assay: Antimicrobial activity against Streptococcus pneumoniae Spn-058 infected in one-compartment pharmacodynamic system assessed as reduction in bacterial density administered at simulated at 500 mg QD dosage regimen measured on day 1; type: functional, organism-based
[41] = Half life in one-compartment pharmacodynamic system administered at simulated oral dose regimen of 500 mg in human for 10 days; type: ADME, organism-based
Streptococcus pneumoniae [42] = assay: Antimicrobial activity against Streptococcus pneumoniae Spn-RC2 infected in one-compartment pharmacodynamic system assessed as decrease in bacterial population administered at simulated oral dose regimen of 500 mg in human for 10 days by quantitative culture assay; type: functional, organism-based
[43] = Stability assessed as degradation half life; type: physicochemical
Streptococcus pneumoniae [44] = assay: Antimicrobial activity against Streptococcus pneumoniae Spn-058 infected in one-compartment pharmacodynamic system assessed as decrease in bacterial population administered at simulated at 750 mg dosage regimen every 12 hrs for 10 days by quantitative culture assay; type: functional, organism-based

COC(=O)[C@H]1[C@H]2C[C@@H]3c4[nH]c5cc(OC)ccc5c4CCN3C[C@H]2C[C@@H](OC(=O)c2cc(OC)c(OC)c(OC)c2)[C@@H]1OC
Activity (Streptococcus pneumoniae [1]): inactive | Activity (Streptococcus pneumoniae [2]): Active | Activity (Streptococcus pneumoniae [3]): Active | Activity (Streptococcus pneumoniae [4]): inactive | Activity (Streptococcus pneumoniae [5]): Active | Activity (Streptococcus pneumoniae [6]): Active | Activity (Streptococcus pneumoniae [7]): Active | Activity (Streptococcus pneumoniae [8]): Active | Activity (Streptococcus pneumoniae [9]): Active | Activity (Streptococcus pneumoniae [10]): Active | Activity (Streptococcus pneumoniae [11]): Active | Activity (Streptococcus pneumoniae [12]): Active | Activity (Streptococcus pneumoniae [13]): Active | Activity (Streptococcus pneumoniae [14]): Active | Activity (Streptococcus pneumoniae [15]): inactive | Activity (Streptococcus pneumoniae [16]): inactive | Activity (Streptococcus pneumoniae [17]): Active | Activity (Streptococcus pneumoniae [18]): Active | Activity (Streptococcus pneumoniae [19]): Active | Activity (Streptococcus pneumoniae [20]): Active | Activity (Streptococcus pneumoniae [21]): Active | Activity (Streptococcus pneumoniae [22]): Active | Activity (Streptococcus pneumoniae [23]): Active | Activity (Streptococcus pneumoniae [24]): Active | Activity (Streptococcus pneumoniae [25]): Active | Activity (Streptococcus pneumoniae [26]): Active | Activity (Streptococcus pneumoniae [27]): Active | Activity (Streptococcus pneumoniae [28]): Active | Activity (Streptococcus pneumoniae [29]): Active | Activity (Streptococcus pneumoniae [30]): Active | Activity (Streptococcus pneumoniae [31]): Active | Activity (Streptococcus pneumoniae [32]): Active

O=C(O)c1cn(C2CC2)c2cc(N3CCNCC3)c(F)cc2c1=O [CIPROFLOXACIN]
Activity (Streptococcus pneumoniae [33]): Active | Activity (Streptococcus pneumoniae [2]): Active | MBC (Streptococcus pneumoniae [34]): 1 µg/mL | MIC (Streptococcus pneumoniae [34]): 1 µg/mL | MIC (Streptococcus pneumoniae [35]): 2 µg/mL (≈ 6.04 µM) | Activity (Streptococcus pneumoniae [36]): inactive | Activity (Streptococcus pneumoniae [37]): Active

C[C@H]1COc2c(N3CCN(C)CC3)c(F)cc3c(=O)c(C(=O)O)cn1c23.C[C@H]1COc2c(N3CCN(C)CC3)c(F)cc3c(=O)c(C(=O)O)cn1c23.O [LEVOFLOXACIN]
Activity (Streptococcus pneumoniae [33]): Active | MBC (Streptococcus pneumoniae [34]): 1 µg/mL | Activity (Streptococcus pneumoniae [38]): inactive | fAUC [39]: 36000 ng·h/mL | Activity (Streptococcus pneumoniae [40]): Active | half-life [41]: 7 h | Activity (Streptococcus pneumoniae [42]): Active | half-life [43]: 20 h | Activity (Streptococcus pneumoniae [44]): Active
